{"source": "patent US7915416B2", "about": "“Tetrahydroquinolines” (Merck Patent GmbH, priority 2004, dated 2011)", "tested_on": "cells", "assay": "cell cycle experiments (G2/M)", "type": "cell-based"}
{"compound": "N=C(N)c1ccc(OCCCCCOc2ccc(C(=N)N)cc2)cc1", "note": "[pentamidine]", "values": [{"measurement": "effect on cell cycle", "value": "maintain cells in the G2/M cell cycle"}]}
